From patent publication US20040110802A1, “Antibacterial benzoic acid derivatives” (priority 2002, published 2004)
Values after ≈ are worked out from the molar mass of the structure shown.

The molecules below were run on SAUR 9218 (assay: MIC Test Method, standard agar dilution). Details: agar dilution, Mueller Hinton agar, incubated overnight at 35° C.; lowest concentration that inhibits visible growth.
Assay type: cell-based
How it was run: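 MIC (μg/ml) was read as the lowest drug level without visible growth of SAUR 9218 after overnight incubation at 35 °C. Inocula of about 10^4 to 10^5 cells per spot were applied to Mueller Hinton agar containing 2-fold serial compound dilutions.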

Structure (SMILES)	SAUR 9218 MIC
Cc1sc(C(=O)Nc2ccc(C#N)cc2C(=O)O)cc1S(=O)(=O)N(C)C(C)C(O)c1ccccc1 (centres unmarked) [drawing 960]	128 µg/mL

Same assay, conditions: agar dilution, Mueller Hinton agar, incubated overnight at 35° C.; lowest concentration that inhibits visible growth; read-out: SAUR 9218 MIC

Structure (SMILES)	MIC
Cn1c(C(=O)Nc2ccc(C#N)cc2C(=O)O)cc2ccc(NS(=O)(=O)c3cccs3)cc21	0.5 µg/mL (≈ 1.04 µM)
N#Cc1ccc(NC(=O)c2cccc3c2CCN(Cc2ccccc2)S3(=O)=O)c(C(=O)O)c1	8 µg/mL (≈ 17.3 µM)
O=C(Nc1ccc(Cl)cc1C(=O)O)c1cc(-c2ccccc2F)on1	0.25 µg/mL (≈ 0.693 µM)
N#Cc1ccc(NC(=O)c2cncc(-c3cnc4ccccc4c3)c2)c(C(=O)O)c1	> 128 µg/mL
CC(C)CN1C(=O)c2ccc(C(=O)Nc3ccc(Br)cc3C(=O)O)cc2C1=O	2 µg/mL (≈ 4.49 µM)
CNS(=O)(=O)c1ccc2onc(C(=O)Nc3ccc(Br)cc3C(=O)O)c2c1	0.125 µg/mL (≈ 0.275 µM)
CC(C)Sc1ccc(C(=O)Nc2ccc(C#N)cc2C(=O)O)cn1	0.25 µg/mL (≈ 0.732 µM)
Cn1c(C(=O)Nc2ccc(C#N)cc2C(=O)O)cc2cccc(NC(=O)c3cccc(S(=O)(=O)N4CCOCC4)c3)c21	2 µg/mL (≈ 3.4 µM)
Cn1c(C(=O)Nc2ccc(C#N)cc2C(=O)O)cc2c(Br)cc(Br)c(N)c21	0.5 µg/mL (≈ 1.02 µM)
N#Cc1cccc(-c2cnc(C(=O)Nc3ccc(Br)cc3C(=O)O)o2)c1	4 µg/mL (≈ 9.7 µM)
N#Cc1ccc(NC(=O)c2cncc(-c3cccc(C(F)(F)F)c3)c2)c(C(=O)O)c1	16 µg/mL (≈ 38.9 µM)
N#Cc1ccc(NC(=O)c2cncc(C#Cc3ccccc3)c2)c(C(=O)O)c1	4 µg/mL (≈ 10.9 µM)
N#Cc1cccc(C(=O)Nc2cccc3cc(C(=O)Nc4ccc(C#N)cc4C(=O)O)[nH]c23)c1	1 µg/mL (≈ 2.23 µM)
CCCCCCSc1ccc(C(=O)Nc2ccc(C#N)cc2C(=O)O)nc1	0.125 µg/mL (≈ 0.326 µM)
O=C(Nc1ccc(Br)cc1C(=O)O)c1cnc(CC(O)[C@H](O)CO)cn1 (some centres unmarked)	> 128 µg/mL
N#Cc1ccc(NC(=O)c2noc3ccc(NC(=O)C4CCC4)cc23)c(C(=O)O)c1	2 µg/mL (≈ 4.95 µM)
Cn1c(C(=O)Nc2ccc(C#N)cc2C(=O)O)cc2cccc(O/C=C3/COC(C)(C)O3)c21	0.25 µg/mL (≈ 0.559 µM)
N#Cc1ccc(NC(=O)COc2ccccc2-c2cc(C(=O)Nc3ccc(C#N)cc3C(=O)O)no2)c(C(=O)O)c1	128 µg/mL (≈ 232 µM)
Cn1c(C(=O)Nc2ccc(C#N)cc2C(=O)O)cc2ccc(OCC3CC3)cc21	0.25 µg/mL (≈ 0.642 µM)
Cc1ncsc1CCOc1ccccc1-c1cc(C(=O)Nc2ccc(C#N)cc2C(=O)O)no1	128 µg/mL (≈ 270 µM)
Cc1noc(-c2ccccc2)c1C(=O)Nc1cccc2cc(C(=O)Nc3ccc(C#N)cc3C(=O)O)[nH]c12	0.5 µg/mL (≈ 0.989 µM)
CC(C)n1c(C(=O)Nc2ccc(Br)cc2C(=O)O)cc2ccccc21	4 µg/mL (≈ 9.97 µM)
CCC1CCCCN1S(=O)(=O)c1cc(C(=O)Nc2ccc(C#N)cc2C(=O)O)sc1C (centres unmarked)	2 µg/mL (≈ 4.33 µM)
CC1(C(=O)Nc2cccc3cc(C(=O)Nc4ccc(C#N)cc4C(=O)O)[nH]c23)CC1	2 µg/mL (≈ 4.97 µM)

Structure (SMILES)	MIC
Cn1c(C(=O)Nc2ccc(C#N)cc2C(=O)O)cc2cccc(-c3ccccc3)c21	0.25 µg/mL (≈ 0.632 µM)
O=C(Nc1ccc(Br)cc1C(=O)O)c1cnc(CC[C@H](O)CO)cn1	64 µg/mL (≈ 156 µM)
N#Cc1ccc(NC(=O)c2ccc(S(=O)(=O)N3CCc4cc(Cl)ccc43)nc2)c(C(=O)O)c1	2 µg/mL (≈ 4.14 µM)
O=C(O)c1cc(Br)ccc1NC(=O)c1cc2ccccc2n1CCCc1ccccc1	4 µg/mL (≈ 8.38 µM)
N#Cc1ccc(NC(=O)c2cc3cccc(NC(=O)Cc4cccc(F)c4)c3[nH]2)c(C(=O)O)c1	0.25 µg/mL (≈ 0.548 µM)
N#Cc1ccc(NC(=O)c2ccc(SCc3nsc(Cl)n3)nc2)c(C(=O)O)c1	0.25 µg/mL (≈ 0.579 µM)
O=C(Nc1ccc(Br)cc1C(=O)O)c1cc2cccc(S(=O)(=O)c3ccccc3)c2[nH]1	0.125 µg/mL (≈ 0.25 µM)
CCNc1ccc2onc(C(=O)Nc3ccc(C#N)cc3C(=O)O)c2c1	0.5 µg/mL (≈ 1.43 µM)
CCCCC(C)Sc1ccc(C(=O)Nc2ccc(C#N)cc2C(=O)O)cn1 (centres unmarked)	0.125 µg/mL (≈ 0.326 µM)
Cn1c(C(=O)Nc2ccc(C#N)cc2C(=O)O)cc2cccc(N(S(C)(=O)=O)S(C)(=O)=O)c21	0.125 µg/mL (≈ 0.255 µM)
O=C(O)c1cc(Br)ccc1NC(=O)c1cc(-c2ccccc2)nc2ccccc12	64 µg/mL (≈ 143 µM)
CSc1ccc(C(=O)Nc2ccc(C#N)cc2C(=O)O)cn1.Cl	4 µg/mL
COc1ccc(-c2ccc3cc(C(=O)Nc4ccc(C#N)cc4C(=O)O)n(C)c3c2)c(OC)c1OC	0.25 µg/mL (≈ 0.515 µM)
CC(C)[Si](c1cc(C(=O)Nc2ccc(C#N)cc2C(=O)O)no1)(C(C)C)C(C)C	0.5 µg/mL (≈ 1.21 µM)
Cn1c(C(=O)Nc2ccc(C#N)cc2C(=O)O)cc2ccc(NS(C)(=O)=O)cc21	4 µg/mL (≈ 9.7 µM)
N#Cc1ccc(NC(=O)c2cc3cccc(NC(=O)Cc4ccccc4)c3[nH]2)c(C(=O)O)c1	0.125 µg/mL (≈ 0.285 µM)
Cn1c(C(=O)Nc2ccc(C#N)cc2C(=O)O)cc2cccc(OCCCOc3ccccc3)c21	0.125 µg/mL (≈ 0.266 µM)
CC(C)c1ccc(CC(=O)Nc2cccc3cc(C(=O)Nc4ccc(C#N)cc4C(=O)O)[nH]c23)cc1	0.5 µg/mL (≈ 1.04 µM)
CCCCCCSc1ccc(C(=O)Nc2ccc(Br)cc2C(=O)O)cn1	0.125 µg/mL (≈ 0.286 µM)
CCCCCSc1cnc(C(=O)Nc2ccc(Br)cc2C(=O)O)cn1	0.25 µg/mL (≈ 0.589 µM)
CCO/N=C1\CCn2c(C(=O)Nc3ccc(C#N)cc3C(=O)O)cc3cccc1c32	1 µg/mL (≈ 2.49 µM)
COc1ccccc1-c1cnc(C(=O)Nc2ccc(Br)cc2C(=O)O)o1	2 µg/mL (≈ 4.79 µM)
N#Cc1ccc(NC(=O)c2cc(-c3ccccc3C(F)(F)F)on2)c(C(=O)O)c1	0.25 µg/mL (≈ 0.623 µM)
N#Cc1ccc(NC(=O)c2ccc(Cl)nc2)c(C(=O)O)c1	16 µg/mL (≈ 53 µM)

Structure (SMILES)	MIC
Cn1cccc1-c1cnc(C(=O)Nc2ccc(C#N)cc2C(=O)O)o1	2 µg/mL (≈ 5.95 µM)
COCC(C)NCC(O)COc1cccc2cc(C(=O)Nc3ccc(C#N)cc3C(=O)O)n(C)c12.Cl (centres unmarked)	1 µg/mL
Cc1sc(C(=O)Nc2ccc(C#N)cc2C(=O)O)cc1S(=O)(=O)N(Cc1ccccc1)C(C)C	32 µg/mL (≈ 64.3 µM)
Cc1sc(C(=O)Nc2ccc(Br)cc2C(=O)O)cc1S(=O)(=O)N1CCN(c2cccc(C(F)(F)F)c2)CC1	32 µg/mL (≈ 50.6 µM)
Cc1ccccc1-c1ccc2c(C(=O)Nc3ccc(C#N)cc3C(=O)O)noc2c1	0.06 µg/mL (≈ 0.151 µM)
N#Cc1ccc(NC(=O)c2cc(CSc3ccncc3)on2)c(C(=O)O)c1	1 µg/mL (≈ 2.63 µM)
Cn1nc(C(=O)Nc2ccc(C#N)cc2C(=O)O)c2ccccc21	32 µg/mL (≈ 99.9 µM)
N#Cc1ccc(NC(=O)c2cc3cccc(S(=O)(=O)c4ccccc4)c3[nH]2)c(C(=O)O)c1	0.125 µg/mL (≈ 0.281 µM)
Cn1c(C(=O)Nc2ccc(I)cc2C(=O)O)cc2cccc(S(=O)(=O)c3ccccc3)c21	0.125 µg/mL (≈ 0.223 µM)
N#Cc1ccc(NC(=O)c2cc(CCCC3CCCCC3)on2)c(C(=O)O)c1	0.25 µg/mL (≈ 0.655 µM)
Cc1sc(C(=O)Nc2ccc(C#N)cc2C(=O)O)cc1S(=O)(=O)N1CCN(c2ccc([N+](=O)[O-])cc2)CC1	4 µg/mL (≈ 7.2 µM)
COC(=O)CCCC(=O)Nc1cccc2cc(C(=O)Nc3ccc(C#N)cc3C(=O)O)[nH]c12	0.5 µg/mL (≈ 1.11 µM)
CCOC(=O)CC(=O)Nc1cccc2cc(C(=O)Nc3ccc(C#N)cc3C(=O)O)[nH]c12	0.5 µg/mL (≈ 1.15 µM)
COc1cccc(CC(=O)Nc2cccc3cc(C(=O)Nc4ccc(C#N)cc4C(=O)O)[nH]c23)c1	0.5 µg/mL (≈ 1.07 µM)
CS(=O)(=O)c1ccccc1C(=O)Nc1cccc2cc(C(=O)Nc3ccc(C#N)cc3C(=O)O)[nH]c12	4 µg/mL (≈ 7.96 µM)
N#Cc1ccc(NC(=O)c2nc(-c3ccccc3)cs2)c(C(=O)O)c1	8 µg/mL (≈ 22.9 µM)
CCOP(=O)(Cc1ccc(NS(=O)(=O)c2cc(C(=O)Nc3ccc(Br)cc3C(=O)O)sc2C)cc1)OCC	64 µg/mL (≈ 99.1 µM)
COc1ccc2cc(C(=O)Nc3ccc(C#N)cc3C(=O)O)n(C)c2c1	0.5 µg/mL (≈ 1.43 µM)
N#Cc1ccc(NC(=O)c2ccc(SCCCOc3ccc(Br)cc3)nc2)c(C(=O)O)c1	0.125 µg/mL (≈ 0.244 µM)
CC(C)NC(=O)Nc1ccc2cc(C(=O)Nc3ccc(C#N)cc3C(=O)O)n(C)c2c1	0.5 µg/mL (≈ 1.19 µM)
N#Cc1ccc(NC(=O)c2noc3cc(OCc4ccccc4)ccc23)c(C(=O)O)c1	0.25 µg/mL (≈ 0.605 µM)
N#Cc1ccc(NC(=O)c2cc3cccn3cn2)c(C(=O)O)c1	32 µg/mL (≈ 104 µM)
Cn1c(C(=O)Nc2ccc(C#N)cc2C(=O)O)cc2ccc(NC(=O)c3ccco3)cc21	2 µg/mL (≈ 4.67 µM)
COc1cccc2cc(C(=O)Nc3ccc(C#N)cc3C(=O)O)oc12	4 µg/mL (≈ 11.9 µM)

Structure (SMILES)	MIC
CC(=O)Nc1ccc(S(=O)(=O)N(c2ccc3cc(C(=O)Nc4ccc(C#N)cc4C(=O)O)n(C)c3c2)S(=O)(=O)c2ccc(NC(C)=O)cc2)cc1	1 µg/mL (≈ 1.37 µM)
COc1cc2c(cc1OC)CN(S(=O)(=O)c1cc(C(=O)Nc3ccc(C#N)cc3C(=O)O)sc1C)CC2	8 µg/mL (≈ 14.8 µM)
O=C(Nc1ccc(Br)cc1C(=O)O)c1cnc(CC(O)[C@H]2COC3(CCCCC3)O2)cn1 (some centres unmarked)	128 µg/mL (≈ 253 µM)
N#Cc1ccc(NC(=O)c2cc(-c3ccccc3OCCCOc3ccccc3)on2)c(C(=O)O)c1	0.5 µg/mL (≈ 1.03 µM)
CC(C)=CCOCC(O)COc1cccc2cc(C(=O)Nc3ccc(C#N)cc3C(=O)O)n(C)c12 (centres unmarked)	0.5 µg/mL (≈ 1.05 µM)
N#Cc1ccc(NC(=O)c2cc3ccc(OCc4ccccc4)cc3[nH]2)c(C(=O)O)c1	0.125 µg/mL (≈ 0.304 µM)
CCCCCSc1cnc(C(=O)Nc2ccc(C#N)cc2C(=O)O)cn1	0.125 µg/mL (≈ 0.337 µM)
O=C(Nc1ccc(Br)cc1C(=O)O)c1cc(SCc2ccccc2)ccn1	2 µg/mL (≈ 4.51 µM)
CC(=O)Oc1ccc(N2C(=O)c3ccc(C(=O)Nc4ccc(Br)cc4C(=O)O)cc3C2=O)cc1	64 µg/mL (≈ 122 µM)
O=C(Nc1ccc(Br)cc1-c1noc(=O)[nH]1)c1cc(-c2ccccc2)on1	1 µg/mL (≈ 2.34 µM)
C#CCCOCC(O)COc1cccc2cc(C(=O)Nc3ccc(C#N)cc3C(=O)O)n(C)c12 (centres unmarked)	0.5 µg/mL (≈ 1.08 µM)
N#Cc1ccc(NC(=O)c2ccc3c(c2)S(=O)(=O)N(c2ccc(Cl)cc2)CC3)c(C(=O)O)c1	0.25 µg/mL (≈ 0.519 µM)
CCCC(C)Sc1ccc(C(=O)Nc2ccc(C#N)cc2C(=O)O)cn1 (centres unmarked)	0.125 µg/mL (≈ 0.338 µM)
COCC(O)COc1cccc2cc(C(=O)Nc3ccc(C#N)cc3C(=O)O)n(C)c12 (centres unmarked)	0.5 µg/mL (≈ 1.18 µM)
COCCOCCCSc1ccc(C(=O)Nc2ccc(C#N)cc2C(=O)O)cn1	1 µg/mL (≈ 2.41 µM)
N#Cc1ccc(NC(=O)c2cncc(-c3ccccc3)c2)c(C(=O)O)c1	16 µg/mL (≈ 46.6 µM)
O=C(Nc1ccc(Cl)cc1C(=O)O)c1cc(-c2ccccc2Cl)on1	0.5 µg/mL (≈ 1.33 µM)
CC1=C(C(=O)Nc2ccc(C#N)cc2C(=O)O)Cc2ccccc21	4 µg/mL (≈ 12.6 µM)
CC(=O)OCCCCSc1ccc(C(=O)Nc2ccc(C#N)cc2C(=O)O)cn1	0.25 µg/mL (≈ 0.605 µM)
Cc1coc2cnc(C(=O)Nc3ccc(C#N)cc3C(=O)O)cc12	16 µg/mL (≈ 49.8 µM)
CC(=O)Oc1ccc2c(C(=O)Nc3ccc(C#N)cc3C(=O)O)noc2c1	1 µg/mL (≈ 2.74 µM)
O=C(Nc1ccc(Cl)cc1C(=O)O)c1cc(-c2ccccc2C(F)(F)F)on1	1 µg/mL (≈ 2.43 µM)
